Here are results for 15 compounds from patent US7897776B2, “Sulfonamide containing compounds for treatment of inflammatory disorders” (Salutria Pharmaceuticals LLC, priority 2007, dated 2011).

Data set [1] deals with Methacholine-induced airway reactivity. Briefly: Mouse model of asthma: methacholine-induced airway reactivity (Penh) in ovalbumin-sensitized and challenged mice. Type of data set: in vivo. To be noted: % inhibition of the PenH vs McH dose AUC compared with vehicle control; for inhibition in vivo at 50 mg/kg: Mus musculus, po, 768 h, 50 mg/kg p.o., dosed days 26-32, measured day 32, ovalbumin-sensitized male Balb/CJ mice, read-out: Reduction of Penh AUC at 50 mg/kg p.o. As for the experimental part: Male 5-6 week old Balb/CJ mice were obtained from Jackson Laboratories (Bar Harbor, Me.). All experimental animals were used in accordance to Institutional Animal Care and Use Committee of AtheroGenics, Inc. Mice were sensitized by administering an intraperitoneal injection of 20 μg of ovalbumin (Calbiochem, La Jolla, Calif.) adsorbed in 2 mg of alum (Imject Alum; Pierce, Rockford, Ill.) on day 0 and 14. A group of mice received saline and served as negative control animals. The mice were challenged by aerosol exposure to ovalbumin (1% [wt/vol]) for 25 minutes on 3 consecutive days (days 28, 29, and 30) in a plexiglass exposure chamber coupled to an Aeroneb nebulizer (Buxco Electronics, Wilmington, N.C.). Experimental compounds were dissolved in Glycofurol/PEG 300/Tween (35%/55%/10%) (Sigma-Aldrich; Milwaukee, Wis.). Animals were dosed orally with either test compound or vehicle (6 ml/kg dosing volume) on days 26-32 of study. Compound or vehicle was administered 2 hour before the aerosol challenge on days 28, 29, and 30 and 1 hour before airway reactivity measurement on day 32.
Methacholine-induced airway reactivity was assessed on day 32. Methacholine was administered in increasing concentrations ([…], 1.5, 3, 6, 12, 25, and 50 mg/ml) to unrestrained mice. Increases in airway resistance to Methacholine were determined as enhanced pause, (Penh) values, during and after the exposure (6-minute total analysis time). Mice were then humanely euthanized with an overdose of ketamine/xylazine and plasma samples collected for determination of drug levels. The data is presented as the % inhibition of the PenH vs McH dose AUC compared with the vehicle control.
Data analysis was conducting using the software package, JMP (SAS Institute Inc; Cary, N.C.). The Dunnett's multiple comparison test was used to compare treatment group means to the vehicle control group. P values of less than 0.05 were considered statistically significant. The data (Table 1) is presented as the % inhibition of the PenH vs McH dose AUC compared with the vehicle control.

Where a name gives a salt, the structure may show the parent alone.

In the case of `Cn1c(C(=O)O)ccc1S(=O)(=O)N1CCC(Sc2cc(C(C)(C)C)c(O)c(C(C)(C)C)c2)CC1` [Example 18, 5-[4-(3,5-Di-tert-butyl-4-hydroxy-phenylsulfanyl)-piperidine-1-sulfonyl]-1-methyl-1H-pyrrole-2-carboxylic acid tris(hydroxymethyl)aminomethane (THAM) Salt], the “Reduction of Penh AUC at 50 mg/kg p.o.” value in data set [1] (dosed days 26-32, measured day 32, ovalbumin-sensitized male Balb/CJ mice, 50 mg/kg) is 1 (>40% and statistically significant).
A word on the melting point: it is the temperature, or range, at which the solid turns liquid. `Cn1c(CO)ccc1S(=O)(=O)N1CCC(CCO)(Sc2cc(C(C)(C)C)c(O)c(C(C)(C)C)c2)CC1` [Example 2, 2,6-Di-tert-butyl-4-[4-(2-hydroxy-ethyl)-1-(5-hydroxymethyl-1-methyl-1H-pyrrole-2-sulfonyl)-piperidin-4-ylsulfanyl]-phenol] returned a melting point of 126 to 127 °C. Besides, in data set [1], the inhibition in vivo at 50 mg/kg is over 40%.
In the case of `Cn1c(C(=O)O)ccc1S(=O)(=O)N1CCC(Sc2cc(C(C)(C)C)c(O)c(C(C)(C)C)c2)CC1` [Example 16, 5-[4-(3,5-Di-tert-butyl-4-hydroxy-phenylsulfanyl)-piperidine-1-sulfonyl]-1-methyl-1H-pyrrole-2-carboxylic acid L-arginine salt], in data set [1], the inhibition in vivo at 50 mg/kg is under 20%.
Same read-out and setting: the same measure for `CC(C)(C)c1cc(SC2CCN(S(=O)(=O)c3ncc(C(C)(C)O)[nH]3)CC2)cc(C(C)(C)C)c1O` [Example 12, 2,6-Di-tert-butyl-4-{1-[5-(1-hydroxy-1-methyl-ethyl)-1H-imidazole-2-sulfonyl]-piperidin-4-ylsulfanyl}-phenol]: under 20%.
As to `CC(C)(C)c1cc(SC2CCN(S(=O)(=O)c3ncc(CO)[nH]3)CC2)cc(C(C)(C)C)c1O` [Example 9, 2,6-Di-tert-butyl-4-[1-(5-hydroxymethyl-1H-imidazole-2-sulfonyl)-piperidin-4-ylsulfanyl]-phenol], the melting point is 122 to 123 °C. Further, in data set [1], the inhibition in vivo at 50 mg/kg was 20 to 40%.
In the case of `CC(C)(C)c1cc(SC2CCN(S(=O)(=O)c3ncc(C(=O)O)[nH]3)CC2)cc(C(C)(C)C)c1O` [Example 8, 2-[4-(3,5-Di-tert-butyl-4-hydroxy-phenylsulfanyl)-piperidine-1-sulfonyl]-3H-imidazole-4-carboxylic acid], in data set [1], the inhibition in vivo at 50 mg/kg fell in the range of 20 to 40%.
Consider `Cn1c(C(=O)O)ccc1S(=O)(=O)N1CC[C@@H](Sc2cc(C(C)(C)C)c(O)c(C(C)(C)C)c2)C1` [Example 13, (R)-5-[3-(3,5-Di-tert-butyl-4-hydroxy-phenylsulfanyl)-pyrrolidine-1-sulfonyl]-1-methyl-1H-pyrrole-2-carboxylic acid], for which, in data set [1], the inhibition in vivo at 50 mg/kg is under 20%.
On to `Cn1c(CO)ccc1S(=O)(=O)N1CC[C@H](Sc2cc(C(C)(C)C)c(O)c(C(C)(C)C)c2)C1` [Example 15, (S)-2,6-Di-tert-butyl-4-[1-(5-hydroxymethyl-1-methyl-1H-pyrrole-2-sulfonyl)-pyrrolidin-3-ylsulfanyl]-phenol], for which the melting point is 68 to 70 °C. In addition, the inhibition in vivo at 50 mg/kg in data set [1] was under 20%.
As to `Cn1c(C(=O)O)ccc1S(=O)(=O)N1CCC(Sc2cc(C(C)(C)C)c(O)c(C(C)(C)C)c2)CC1` [Example 4, 5-[4-(3,5-Di-tert-butyl-4-hydroxy-phenylsulfanyl)-piperidine-1-sulfonyl]-1-methyl-1H-pyrrole-2-carboxylic acid], the inhibition in vivo at 50 mg/kg in data set [1] was over 40%.
The same measure, in the same setting: for `Cn1c(C(=O)O)ccc1S(=O)(=O)N1CCC(Sc2cc(C(C)(C)C)c(OCCCO)c(C(C)(C)C)c2)CC1` [Example 6, 5-{4-[3,5-Di-tert-butyl-4-(3-hydroxy-propoxy)-phenylsulfanyl]-piperidine-1-sulfonyl}-1-methyl-1H-pyrrole-2-carboxylic acid] the value was under 20%; for `Cc1[nH]c(C(=O)O)c(C)c1S(=O)(=O)N1CCC(Sc2cc(C(C)(C)C)c(O)c(C(C)(C)C)c2)CC1` [Example 3, 4-[4-(3,5-Di-tert-butyl-4-hydroxy-phenylsulfanyl)-piperidine-1-sulfonyl]-3,5-dimethyl-1H-pyrrole-2-carboxylic acid], 20 to 40%.
`Cn1c(C(=O)O)ccc1S(=O)(=O)N1CCC([S+]([O-])c2cc(C(C)(C)C)c(O)c(C(C)(C)C)c2)CC1` (stereo not shown) [Example 7, 5-[4-(3,5-Di-tert-butyl-4-hydroxy-benzenesulfinyl)-piperidine-1-sulfonyl]-1-methyl-1H-pyrrole-2-carboxylic acid]: the inhibition in vivo at 50 mg/kg in data set [1] lay in the range of 20 to 40%.
Compound `Cn1c(CO)ccc1S(=O)(=O)N1CCC(Sc2cc(C(C)(C)C)c(O)c(C(C)(C)C)c2)CC1` [Example 5, 2,6-Di-tert-butyl-4-[1-(5-hydroxymethyl-1-methyl-1H-pyrrole-2-sulfonyl)-piperidin-4-ylsulfanyl]-phenol] displayed a melting point of 64 to 65 °C. The inhibition in vivo at 50 mg/kg in data set [1] was over 40%.
Turning to `Cn1c(C(=O)O)ccc1S(=O)(=O)N1CCC(CCO)(Sc2cc(C(C)(C)C)c(O)c(C(C)(C)C)c2)CC1` [Example 1, 5-[4-(3,5-Di-tert-butyl-4-hydroxy-phenylsulfanyl)-4-(2-hydroxy-ethyl)-piperidine-1-sulfonyl]-1-methyl-1H-pyrrole-2-carboxylic acid], the inhibition in vivo at 50 mg/kg in data set [1] was under 20%.
Still for that read-out and setting: the same measure for `Cn1c(C(=O)O)ccc1S(=O)(=O)N1CC[C@H](Sc2cc(C(C)(C)C)c(O)c(C(C)(C)C)c2)C1` [Example 14, (S)-5-[3-(3,5-Di-tert-butyl-4-hydroxy-phenylsulfanyl)-pyrrolidine-1-sulfonyl]-1-methyl-1H-pyrrole-2-carboxylic acid]: under 20%.
